Experimental data as given in patent publication US6963769B1, “Method for enhancing contrast produced by MRI” (The United States of America as represented by the …, priority 1999, dated 2005).
“And” between values parts separate entries of the source, which are not always exact repeats. Equal values may be shown once. Where a name gives a salt, the structure may show the parent alone. Read-outs that look alike come from different tables or passages of the source.

Tests used:
[1] = in vitro CEDST spectra of candidate contrast agents (proton chemical exchange with water), 7T; details: for chemical shift of proton chemical exchange site (ΔωcA): relative to water
Description: Test compounds were dissolved in HPLC grade water at concentrations denoted in Table 1 with inorganic phosphate buffers to maintain pH.
CEDST spectra were acquired at 7T using a Bruker AC-300 wide bore spectrometer at 37° C. The observation frequency was set on the water peak and the decoupler was used to provide off-resonance saturation. Studies were conducted using a steady-state with irradiation (15 seconds) over a range of irradiation frequencies ±8.00 ppm from water. CEDST spectra were plotted in the form of water amplitude (Ms) versus irradiation frequency.
Several chemical reagents, including 5,6-dihydrouracil, 5-hydroxy-tryptophan, hydantoin, parabanic acid, sugars, amino acids, nucleosides, and imidazoles (Table 1), were tested for their ability to undergo proton chemical exchange detected using CEDST. Chemical shifts are reported relative to the water resonance. The spectral dependence of CEDST was determined by sweeping the irradiation frequency and while monitoring the water resonance.
Saturation depends on the B1 power and the irradiation offset frequency. The appropriate power was determined by increasing power until no further decrease in Ms was observed. […] Spin lattice relaxation time constants (T1) were obtained with inversion-recovery experiments. The range of inversion delays (Ti) was between 0.001 and 30 seconds, with a 30 second pre-delay.

[2] = pKa of the proton exchange site
[3] = MR images of phantoms, 4T GRE sequence with off-resonance saturation at ±850 Hz (5.00 ppm), difference image; format: physicochemical
Description: The results in FIG. 3 confirm those of FIG. 2. MR images of phantoms were collected on a custom-designed 4T system operating at room temperature (about 20° C.). The imaging sequence itself is a GRE (Gradient Recalled Echo) imaging sequence with an off-resonance saturation pulse centered at an offset of 5.00 ppm (850 Hz for the field at 4 Tesla). The other parameters used were: 90 degree flip angle used, TE (Echo time)=9 msec, TR (Repetition time)=1.2 sec, 16 Sinc pulses, followed by crusher gradients (which completely dephased the transverse magnetization). Four test tubes are shown in FIG. 3, with each containing a different solution. Three contained 62.5 mM barbituric acid at pH=7.4, 7.0, or 6.5. The fourth test tube contained 500 mM NH4Cl at pH=5.0. These test tubes were placed inside the 4T NMR imaging system, irradiated at ±850 Hz, and both control and experimental images were collected as described previously. FIG. 3 is the difference image generated by subtracting the experimental image from the control image. […] Therefore, the signals in these phantoms were generated due to proton chemical exchange with barbituric acid. The brightest signal in these phantoms (where the control and experimental image difference was the greatest) was generated by barbituric acid at pH=7.4.

rabbit bladder = assay: in vivo CEDST MRI of rabbit bladder after intravenous barbituric acid, 4 Tesla; parameters: species or system New Zealand White rabbit
Description: This example describes the in vivo analysis of barbituric acid in a rabbit bladder. A male New Zealand White rabbit (1.5 kg, Hazelton Research Products, Denver Pa.) was initially anaesthetized with an intramuscular injection of a mixture of ketamine/acepromazaine (180 mg/2 mg), intubated and placed on a Siemens 900c ventilator (Siemens Medical Systems, Danvers Mass.). A catheter was placed in the marginal ear vein for infusion of intravenous fluids to maintain volume status. This catheter also was used to administer three doses of 50 mL barbituric acid solution (125 mM, pH=7.4, 20 mM phosphate buffer). Anesthesia was maintained with 2% isoflurane until sacrifice with 6 meq of KCl IV.
The rabbit was analyzed using a 4 Tesla magnet at the settings described in Example 1. The images were obtained after irradiation at the ppm offset characteristic of barbituric acid (5.25). […] The bladder and surrounding muscles are visible. This control image is collected to correct for the broad background of saturation transfer from macromolecules (i.e. proteins, lipids) located underneath the water signal. Guivel-Scharen et al., J. Magn. Reson., 133:36-45 (1998), herein incorporated by reference. […] This will irradiate the barbituric acid signal.
Following sacrifice of the rabbit, urine was collected and evaluated on the 7T system at 37° C. as described in Example 1. […] FIGS. 12-14 also confirm the identity of the metabolite imaged during the in vivo analysis.

[4] = cited from earlier work
[5] = cited from earlier work; remark: listed apart in the source
[6] = 62.5 mM, 37° C., 20 mM phosphate buffer, 10.88 × 10^−7T, at given ppm and pH
[7] = 62.5 mM, 37° C., 20 mM phosphate buffer, exchange site
[8] = sugars 250 mM, —OH protons, single pH 7.0, 37° C., 20 mM phosphate buffer
[9] = sugars 250 mM, —OH protons, single pH 7.0, 37° C., 20 mM phosphate buffer, saturation power 10.88 × 10^−7T
[10] = 125 mM, 3-NH, 37° C., 2 mM phosphate buffer, 10.88 × 10^−7T, at listed pH
[11] = 125 mM, 37° C., 20 mM phosphate buffer, 10.88 × 10^−7T, at given ppm and pH
[12] = 125 mM, 37° C., 20 mM phosphate buffer, exchange site
[13] = imidazole derivatives, ring protons (—NH), concentration not given, 37° C., 20 mM phosphate buffer
[14] = 35 mM, —NH2, 37° C., 20 mM phosphate buffer, 10.88 × 10^−7T, at listed pH
[15] = 125 mM, guanidinium protons, single pH 7.0, 37° C., 20 mM phosphate buffer, 10.88 × 10^−7T

## N[C@@H](Cc1c[nH]c2ccc(O)cc12)C(=O)O [5-Hydroxy-Tryptophan]
[1]; [6]
  Ms/Mo: 0.57 and 0.79
[1]; [7]
  ppm (relative to the resonant frequency of water): 2.833 ppm and 5.333 ppm
[1]
  chemical shift of proton chemical exchange site (ΔωcA): 5.33 ppm and 2.83 ppm
[1]; listed as 5-HT
  chemical shift of proton chemical exchange site (ΔωcA): 5.33 ppm

## O=C1NC(=O)C(=O)N1 [Parabanic Acid]
[1]; [6]
  Mo − Ms (%): 20.5% and 25.4% and 22.5%
  Ms/Mo: 0.79 and 0.74 and 0.77

## CCC1(CC)C(=O)NC(=O)NC1=O [Barbital (5,5-Diethyl-Barbituric Acid), 5,5-Diethyl-Barbituric Acid]
[1]; [6]
  Mo − Ms (%): 14.2%
  Ms/Mo: 0.82
[1]; [7]
  ppm (relative to the resonant frequency of water): 5.000 ppm
[2]
  pKa: 7

## OC[C@H]1O[C@@](CO)(O[C@H]2O[C@H](CO)[C@@H](O)[C@H](O)[C@H]2O)[C@@H](O)[C@@H]1O [Sucrose]
[1]; [8]
  ppm (relative to the resonant frequency of water): 1.333 ppm
[1]; [9]
  Mo − Ms (%): 10.2%
  Ms/Mo: 0.86

## O=c1ccn([C@@H]2O[C@H](CO)[C@@H](O)[C@H]2O)c(=O)[nH]1 [Uridine]
[1]; [10]
  Ms/Mo: 0.65

## Cc1cn([C@H]2C[C@H](O)[C@@H](CO)O2)c(=O)[nH]c1=O [Thymidine]
[1]; 125 mM, 3-NH, 37° C., 2 mM phosphate buffer
  ppm (relative to the resonant frequency of water): 6.333 ppm
[1]; [10]
  Mo − Ms (%): 34.8%
  Ms/Mo: 0.65

## NCCCC[C@H](N)C(=O)O [L-Lysine]
[1]; [11]
  Mo − Ms (%): 66.2%
  Ms/Mo: 0.34
[1]; [12]
  ppm (relative to the resonant frequency of water): 3.000 ppm

## Cl.N [NH4Cl, reference compound]
[3]
  enhancement in difference image of phantoms: neither the surrounding water nor the NH4Cl control were significantly affected

## OC[C@@H](O)[C@@H](O)[C@H](O)[C@@H](O)CO [Sorbitol]
[1]; [8]
  ppm (relative to the resonant frequency of water): 1.000 ppm
[1]; [9]
  Mo − Ms (%): 7.3%
  Ms/Mo: 0.88

## NC(=O)CC[C@H](N)C(=O)O [L-Glutamine]
[1]; [11]
  Mo − Ms (%): 27.6%
  Ms/Mo: 0.70
[1]; [12]
  ppm (relative to the resonant frequency of water): 2.000 ppm

## O=C1NCCN1 [2-Imidazolidone]
[1]; [13]
  Mo − Ms (%): 30.4% and 29.8%
  Ms/Mo: 0.68
  ppm (relative to the resonant frequency of water): 1.167 ppm

## OC[C@@H](O)[C@@H](O)[C@H](O)[C@H](O)CO [Mannitol]
[1]; [8]
  ppm (relative to the resonant frequency of water): 1.000 ppm
[1]; [9]
  Mo − Ms (%): 9.0%
  Ms/Mo: 0.89

## O=C1CC(=O)NC(=S)N1 [2-Thio-Barbituric Acid]
[1]; [6]
  Mo − Ms (%): 35.3%
  Ms/Mo: 0.65
[1]; [7]
  ppm (relative to the resonant frequency of water): 6.333 ppm
[1]
  chemical shift of proton chemical exchange site (ΔωcA): 6.33 ppm

## O=C[C@H](O)[C@@H](O)[C@@H](O)[C@H](O)CO [Galactose]
[1]; [8]
  ppm (relative to the resonant frequency of water): 1.167 ppm
[1]; [9]
  Mo − Ms (%): 10.3%
  Ms/Mo: 0.85

## O=C1CC(=O)NC(=O)N1 [Barbituric Acid]
[3]; 4T, about 20° C., irradiated at ±850 Hz, barbituric acid 62.5 mM pH 7.4, 7.0, 6.5, NH4Cl 500 mM pH 5.0
  enhancement in difference image of phantoms: enhanced
[1]; [6]
  Mo − Ms (%): 32.5%
  Ms/Mo: 0.68
[1]; [7]
  ppm (relative to the resonant frequency of water): 5.000 ppm
[1]
  chemical shift of proton chemical exchange site (ΔωcA): 5.00 ppm
Rabbit bladder; intravenous, 125 mM solution
  physiological response to the injection: physiologically unaltered (i.e. no change in blood pressure)
Rabbit bladder; intravenous, 50 mL doses of 125 mM solution, pH 7.4
  time to reach the kidneys: ≤ 20 min
Rabbit bladder; irradiation ±900 Hz (5.25 ppm/4T)
  location of signal remaining in the in vivo difference image: is in the bladder, not in the muscle or other tissues
[4]
  Oral dosage toxicity, LD50: > 5000 mg/kg
[2]
  pKa: 12

## O=C1CCNC(=O)N1 [5,6 Dihydrouracil]
[5]
  pKa of the 5.00 ppm site: ~9.5
[1]; [6]
  Mo − Ms (%): 22.2%
  Ms/Mo: 0.78 and 0.77
[1]; [7]
  ppm (relative to the resonant frequency of water): 5.000 ppm and 2.667 ppm
[1]; running text, listed as 5,6-dihydro-uracil
  chemical shift of proton chemical exchange site (ΔωcA): 5.00 ppm and 2.67 ppm
[1]; running text, listed as 5,6-dihydrouracil
  chemical shift of proton chemical exchange site (ΔωcA): 5.0 ppm and 2.67 ppm

## N[C@@H](Cc1c[nH]c2ccccc12)C(=O)O [L-Tryptophan]
[1]; 35 mM, —NH2, 37° C., 20 mM phosphate buffer
  ppm (relative to the resonant frequency of water): 2.000 ppm
[1]; [14]
  Mo − Ms (%): 12.2%
  Ms/Mo: 0.89

## O=C(O)C1CCCCN1 (stereo not shown) [Pipecolinic Acid]
[1]; [6]
  Mo − Ms (%): 19.3%
  Ms/Mo: 0.81
[1]; [7]
  ppm (relative to the resonant frequency of water): 3.33 ppm

## O=C(CO)[C@@H](O)[C@H](O)[C@H](O)CO [Fructose]
[1]; [8]
  ppm (relative to the resonant frequency of water): 1.333 ppm
[1]; [9]
  Mo − Ms (%): 9.3%
  Ms/Mo: 0.88

## O=C(O)C1CCN1 (stereo not shown) [Azetidine-2-Carboxylic Acid]
[1]; [6]
  Mo − Ms (%): 25.5%
  Ms/Mo: 0.74
[1]; [7]
  ppm (relative to the resonant frequency of water): 3.50 ppm

## O=C1CNC(=O)N1 [Hydantoin]
[1]; [6]
  Mo − Ms (%): 18.7% and 21.3%
  Ms/Mo: 0.81 and 0.78

## C[C@H](N)C(=O)O [L-Alanine]
[1]; [11]
  Mo − Ms (%): 67.4%
  Ms/Mo: 0.36
[1]; [12]
  ppm (relative to the resonant frequency of water): 3.000 ppm

## N=C(N)N [Guanidine HCl]
[1]; 125 mM, guanidinium protons, single pH 7.0, 37° C., 20 mM phosphate buffer
  ppm (relative to the resonant frequency of water): 2.000 ppm
[1]; [15]
  Mo − Ms (%): 60.0%
  Ms/Mo: 0.38
